Reference: patent publication US6677336B2, “Substituted piperazine compounds” (CV Therapeutics, Inc., priority 2000, dated 2004)

What follows are molecules tested on mitochondrial fatty acid oxidation (rat heart mitochondria) (assay: Palmitoyl CoA oxidation in isolated rat heart mitochondria). Conditions: 100 μM compound; 15 min at 30° C; DMSO control.
Assay type: biochemical
Description: Compounds of this invention were evaluated in a rat heart mitochondiral assay as set forth below.
Rat heart mitochondria were isolated by the method of Nedergard and Cannon (methods in Enzymol. 55, 3, 1979).
Palmitoyl CoA oxidation—The Palmityl CoA oxidation was carried out in a total volume of 100 micro liters containing the following agents: 110 mM KCl, 33 mM Tris buffer at pH 8, 2 mM KPi, 2 mM MgCl2, 0.1 mM EDTA, 14.7 microM defatted BSA, 0.5 mM malic acid, 13 mM carnitine, 1 mM ADP, 52 micrograms of mitochondrial protein, and 16 microM 1-C14 palmitoyl CoA (Sp. Activity 60 mCi/mmole; 20 microCi/ml, using 5 microliters per assay). The compounds of this invention were added in a DMSO solution at the following concentrations: 100 microM, 30 microM, and 3 microM. In each assay, a DMSO control was used. After 15 min at 30° C., the enzymatic reaction was centrifuged (20,000 g for 1 min), and 70 microliters of the supernatant was added to an activated reverse phase silicic acid column (approximately 0.5 ml of silicic acid). The column was eluted with 2 ml of water, and 0.5 ml of the eluent was used for scintillation counting to determine the amount of C^14 trapped as C^14 bicarbonate ion.
With `Cc1cccc(C)c1NC(=O)CN1CCN(CC(O)CCOc2ccc(F)cc2)CC1` (stereo not shown) [Compound 21, N-(2,6-dimethylphenyl)-2-{4-[4-(4-fluorophenoxy)-2-hydroxybutyl]-piperazinyl}acetamide] the “Inhibition of mitochondrial fatty acid oxidation using palmitoyl CoA as substrate - % of Control” value (shortened to “Inhibition … - % of Control”) was 87%.
For `Cc1cccc(C)c1NC(=O)CN1CCN(C[C@H](O)COc2ccccc2F)[C@@H](C)C1` [Compound 25, 2-{(3S)-4-[(2S)-3-(2-fluorophenoxy)-2-hydroxypropyl]-3-methylpiperazinyl}-N-(2,6-dimethylphenyl)acetamide], the “Inhibition … - % of Control” value was 77%.
With `C[C@H]1CN(CC(=O)Nc2c(Cl)cccc2Cl)CCN1C[C@H](O)COc1ccccc1F` [Compound 26, 2-{(3S)-4-[(2S)-3-(2-fluorophenoxy)-2-hydroxypropyl]-3-methylpiperazinyl}-N-(2,6-dichlorophenyl)acetamide] the “Inhibition … - % of Control” value was 0%.
`COc1cc(NC(=O)CN2CCN(C[C@H](O)COc3ccccc3F)[C@@H](C)C2)cc(C(F)(F)F)c1` [Compound 28, 2-{(3S)-4-[(2S)-3-(2-fluorophenoxy)-2-hydroxypropyl]-3-methylpiperazinyl}-N-(5-methoxy-3-(trifluoromethyl)phenyl]acetamide] was tested, and the “Inhibition … - % of Control” value was 59%.
In the case of `C[C@H]1CN(CC(=O)Nc2ccc3c(c2)CCC3)CCN1C[C@H](O)COc1ccccc1F` [Compound 29, 2-{(3S)-4-[(2S)-3-(2-fluorophenoxy)-2-hydroxypropyl]-3-methylpiperazinyl}-N-indan-5-ylacetamide], the “Inhibition … - % of Control” value is reported as 51%.
`C[C@H]1CN(CC(=O)Nc2cccc3ccccc23)CCN1C[C@H](O)COc1ccccc1F` [Compound 30, 2-{(3S)-4-[(2S)-3-(2-fluorophenoxy)-2-hydroxypropyl]-3-methylpiperazinyl}-N-naphthylacetamide] was tested, and the “Inhibition … - % of Control” value was 16%.
For `C[C@H]1CN(CC(=O)Nc2ccc(Cl)c3ccccc23)CCN1C[C@H](O)COc1ccccc1F` [Compound 31, 2-{(3S)-4-[(2S)-3-(2-fluorophenoxy)-2-hydroxypropyl]-3-methylpiperazinyl}-N-(4-chloronaphthyl)acetamide], the “Inhibition … - % of Control” value was 87%.
For `C[C@H]1CN(CC(=O)Nc2ccccc2-n2cccc2)CCN1C[C@H](O)COc1ccccc1F` [Compound 32, 2-{(3S)-4-[(2S)-3-(2-fluorophenoxy)-2-hydroxypropyl]-3-methylpiperazinyl}-N-(2-pyrrolylphenyl)acetamide], the “Inhibition … - % of Control” value was 74%.
In the case of `C[C@H]1CN(CC(=O)Nc2ccccc2)CCN1C[C@H](O)COc1ccccc1F` [Compound 33, 2-{(3S)-4-[(2S)-3-(2-fluorophenoxy)-2-hydroxypropyl]-3-methylpiperazinyl}-N-phenylacetamide], the “Inhibition … - % of Control” value is reported as 63%.
In the case of `C[C@H]1CN(CC(=O)Nc2ccccc2Cl)CCN1C[C@H](O)COc1ccccc1F` [Compound 34, 2-{(3S)-4-[(2S)-3-(2-fluorophenoxy)-2-hydroxypropyl]-3-methylpiperazinyl}-N-(2-chlorophenyl)acetamide], the “Inhibition … - % of Control” value is reported as 48%.
`Cc1ccc(NC(=O)CN2CCN(C[C@H](O)COc3ccccc3F)[C@@H](C)C2)c(Cl)c1` [Compound 35, 2-{(3S)-4-[(2S)-3-(2-fluorophenoxy)-2-hydroxypropyl]-3-methylpiperazinyl}-N-(2-chloro-4-methylphenyl)acetamide] was tested, and the “Inhibition … - % of Control” value was 45%.
For `C=C(C)c1ccccc1NC(=O)CN1CCN(C[C@H](O)COc2ccccc2F)[C@@H](C)C1` [Compound 36, 2-{(3S)-4-[(2S)-3-(2-fluorophenoxy)-2-hydroxypropyl]-3-methylpiperazinyl}-N-[2-(1-methylvinyl)phenyl]acetamide], the “Inhibition … - % of Control” value was 61%.
For `Cc1ccccc1NC(=O)CN1CCN(C[C@H](O)COc2ccccc2F)[C@@H](C)C1` [Compound 37, 2-{(3S)-4-[(2S)-3-(2-fluorophenoxy)-2-hydroxypropyl]-3-methylpiperazinyl}-N-(2-methylphenyl)acetamide], the “Inhibition … - % of Control” value was 55%.
With `Cc1cccc(C(C)C)c1NC(=O)CN1CCN(C[C@H](O)COc2ccccc2F)[C@@H](C)C1` [Compound 38, 2-{(3S)-4-[(2S)-3-(2-fluorophenoxy)-2-hydroxypropyl]-3-methylpiperazinyl}-N-[6-methyl-2-(methylethyl)phenyl]acetamide] the “Inhibition … - % of Control” value was 78%.
For `CSc1cccc(NC(=O)CN2CCN(C[C@H](O)COc3ccccc3F)[C@@H](C)C2)c1` [Compound 39, 2-{(3S)-4-[(2S)-3-(2-fluorophenoxy)-2-hydroxypropyl]-3-methylpiperazinyl}-N-(3-methylthiophenyl)acetamide], the “Inhibition … - % of Control” value was 60%.
For `COc1cc(Cl)c(C)cc1NC(=O)CN1CCN(C[C@H](O)COc2ccccc2F)[C@@H](C)C1` [Compound 40, 2-{(3S)-4-[(2S)-3-(2-fluorophenoxy)-2-hydroxypropyl]-3-methylpiperazinyl}-N-(4-chloro-2-methoxy-5-methylphenyl)acetamide], the “Inhibition … - % of Control” value was 23%.
For `C[C@H]1CN(CC(=O)Nc2ccc(N(C)C)cc2)CCN1C[C@H](O)COc1ccccc1F` [Compound 41, 2-{(3S)-4-[(2S)-3-(2-fluorophenoxy)-2-hydroxypropyl]-3-methylpiperazinyl}-N-[4-(dimethylamino)phenyl]acetamide], the “Inhibition … - % of Control” value was 64%.
`COc1ccc(NC(=O)CN2CCN(C[C@H](O)COc3ccccc3F)[C@@H](C)C2)c(OC)c1` [Compound 42, 2-{(3S)-4-[(2S)-3-(2-fluorophenoxy)-2-hydroxypropyl]-3-methylpiperazinyl}-N-(2,4-dimethoxyphenyl)acetamide] was tested, and the “Inhibition … - % of Control” value was 68%.
For `C[C@H]1CN(CC(=O)Nc2ccc(Cl)c(Cl)c2)CCN1C[C@H](O)COc1ccccc1F` [Compound 43, 2-{(3S)-4-[(2S)-3-(2-fluorophenoxy)-2-hydroxypropyl]-3-methylpiperazinyl}-N-(3,4-dichlorophenyl)acetamide], the “Inhibition … - % of Control” value was 19%.
For `C[C@H]1CN(CC(=O)Nc2ccc(Cl)cc2)CCN1C[C@H](O)COc1ccccc1F` [Compound 44, 2-{(3S)-4-[(2S)-3-(2-fluorophenoxy)-2-hydroxypropyl]-3-methylpiperazinyl}-N-(4-chlorophenyl)acetamide], the “Inhibition … - % of Control” value was 81%.
With `C[C@H]1CN(CC(=O)Nc2cccc(Cl)c2)CCN1C[C@H](O)COc1ccccc1F` [Compound 45, 2-{(3S)-4-[(2S)-3-(2-fluorophenoxy)-2-hydroxypropyl]-3-methylpiperazinyl}-N-(3-chlorophenyl)acetamide] the “Inhibition … - % of Control” value was 58%.
For `C[C@H]1CN(CC(=O)Nc2cc(Cl)cc(Cl)c2)CCN1C[C@H](O)COc1ccccc1F` [Compound 46, 2-{(3S)-4-[(2S)-3-(2-fluorophenoxy)-2-hydroxypropyl]-3-methylpiperazinyl}-N-(3,5-dichlorophenyl)acetamide], the “Inhibition … - % of Control” value was 7%.
For `COc1ccc(NC(=O)CN2CCN(C[C@H](O)COc3ccccc3F)[C@@H](C)C2)cc1` [Compound 47, 2-{(3S)-4-[(2S)-3-(2-fluorophenoxy)-2-hydroxypropyl]-3-methylpiperazinyl}-N-(4-methoxyphenyl)acetamide], the “Inhibition … - % of Control” value was 80%.
`Cc1ccc(NC(=O)CN2CCN(C[C@H](O)COc3ccccc3F)[C@@H](C)C2)cc1` [Compound 48, 2-{(3S)-4-[(2S)-3-(2-fluorophenoxy)-2-hydroxypropyl]-3-methylpiperazinyl}-N-(4-methylphenyl)acetamide] was tested, and the “Inhibition … - % of Control” value was 61%.
`Cc1cccc(NC(=O)CN2CCN(C[C@H](O)COc3ccccc3F)[C@@H](C)C2)c1` [Compound 49, 2-{(3S)-4-[(2S)-3-(2-fluorophenoxy)-2-hydroxypropyl]-3-methylpiperazinyl}-N-(3-methylphenyl)acetamide] was tested, and the “Inhibition … - % of Control” value was 66%.
In the case of `C[C@H]1CN(CC(=O)Nc2ccc(F)cc2)CCN1C[C@H](O)COc1ccccc1F` [Compound 50, 2-{(3S)-4-[(2S)-3-(2-fluorophenoxy)-2-hydroxypropyl]-3-methylpiperazinyl}-N-(4-fluorophenyl)acetamide], the “Inhibition … - % of Control” value is reported as 80%.
In the case of `C[C@H]1CN(CC(=O)Nc2ccc(C#N)cc2)CCN1C[C@H](O)COc1ccccc1F` [Compound 51, 2-{(3S)-4-[(2S)-3-(2-fluorophenoxy)-2-hydroxypropyl]-3-methylpiperazinyl}-N-(4-cyanophenyl)acetamide], the “Inhibition … - % of Control” value is reported as 99%.
For `COc1ccccc1NC(=O)CN1CCN(C[C@H](O)COc2ccccc2F)[C@@H](C)C1` [Compound 53, 2-{(3S)-4-[(2S)-3-(2-fluorophenoxy)-2-hydroxypropyl]-3-methylpiperazinyl}-N-(2-methoxyphenyl)acetamide], the “Inhibition … - % of Control” value was 81%.
